Converted amounts (≈) assume the structure as drawn. Where a name gives a salt, the structure may show the parent alone. Read-outs that look alike come from different tables or passages of the source.
What was measured:
E. coli ATCC 25922 = test: Antibiotic susceptibility testing with lysis buffer sample preparation and PB detection; type: cell-based; conditions: for MIC: E. coli ATCC 25922 spiked in blood and MH media, 16 hr of incubation; for growth of bacteria (OD value) with increase in antibiotic concentration: ampicillin 2 mg/L to 16 mg/L, gentamicin 0.5 mg/L to 8 mg/L, after 16 hr of incubation
Source text: FIGS. 7 and 8 show antibiotic susceptibility testing. The lysis buffer based sample preparation method combined with detection using PB formation was used to perform antibiotic susceptibility testing (recommended by EUCAST [15]) using different concentration of ampicillin and gentamicin in separate experiments, on E. coli ATCC 25922 bacteria strain (10^6 CFU/mL) spiked in blood (sample) and in MH media (positive control). ‘MH+Lysis buffer’ is used as negative control (NC). […] The corresponding decrease in PB colour formation on the filter paper with increase in ampicillin and gentamicin concentration is shown on top of each bar in the graphs of the FIG. 7 and FIG. 8, respectively. The MIC of ampicillin and gentamicin was determined to be 16 and 8 mg/L respectively, which was in agreement with the MIC range provided by EUCAST for E. coli ATCC 25922.

With `CC1(C)S[C@@H]2[C@H](NC(=O)[C@H](N)c3ccccc3)C(=O)N2[C@H]1C(=O)O` [ampicillin] the MIC (E. coli ATCC 25922; Escherichia coli, ATCC25922, read-out: MIC) was 16 µg/mL (≈ 45.8 µM) and the “growth of bacteria (OD value) with increase in antibiotic concentration” value (E. coli ATCC 25922) was “growth of bacteria decreased”.
`O=C(O)CC(O)(CC(=O)O)C(=O)O` [Citrate, ferric ammonium citrate] was tested, and the toxicity to bacteria (bacteria) was “not toxic”.
For gentamicin, the MIC (E. coli ATCC 25922) was 8 µg/mL and the “growth of bacteria (OD value) with increase in antibiotic concentration” value (E. coli ATCC 25922) was “growth of bacteria decreased”.

Source: US20240240136A1, “SELECTIVE LYSIS OF MAMMALIAN EUKARYOTIC CELLS AND VISUALIZATION OF VIABLE BACTERIAL CELLS” (priority 2021, published 2024)
